Data published in patent publication US6900202B2, “Di-substituted imineheterocyclic compounds” (priority 2000, dated 2005).

Molecular target: T1, α4β2 subtype of nicotinic acetylcholine receptors (Rattus norvegicus, UniProt P09483+P12390)
T1 construct: examined using rat brain membrane obtained from whole homogenized brain; from tissue; host or cells: whole brain membranes of Fischer-344 male rats
Test: Binding assay at α4β2 subtype of nicotinic acetylcholine receptors ([3H]-cytisine, rat brain membrane)
From the text: The methods for evaluating the binding capabilities of the compounds against nicotinic acetylcholine receptors are different by subtypes of receptors. The binding capabilities of the compounds at α4β2 nicotinic acetylcholine receptors are examined using rat brain membrane obtained from whole homogenized brain, and determining the inhibiting rate of the compounds against [^3H]-cytisine binding to said brain membrane. Furthermore, the binding capabilities of the compounds at α1β1γδ nicotinic acetylcholine receptors are examined using homogenized rat muscle, and determining the inhibiting rate of the compounds against [^3H]-α-bungarotoxin binding to said muscle membrane.
Binding Assays at α4β2 Subtype of Nicotinic Acetylcholine Receptors
The affinity of the compounds of the present invention to α4β2 subunit of nicotinic acetylcholine receptors was performed by the following method, which was modified method described by Pabreza L. A., Dhawan S. & Kellar K. J., Mol. Pharm., 39, 9-12 (1990), and by Anderson D. J. & Arneric S. P., Eur. J. Pharm., 253, 261-267 (1994).
(1) Preparation of Rat Brain Membrane Containing α4β2 subtype of Nicotinic Acetylcholine Receptors
Fischer-344 strain male rats (body weight: 200-240 g; 9 weeks old) obtained from Charles River Japan were used. Rats were housed in the breeding cage controlled of the room temperature at 23±1° C., and the humidity of 55±5% for 1 to 4 weeks. Rats (3 to 4 rats per a cage) were housed with lights on for 12 hours daily (from 7:00 to 19:00), and allowed free access to food and water.
Preparation of rat brain membrane containing α4β2 subtype of nicotinic acetylcholine receptors was performed as follow. That is, rat brains were isolated just after sacrificed by decapitation, washed with ice-cooled saline solution and then frozen at −80° C. with liquid nitrogen and stored till using. After thawing the frozen brain, the brain was homogenized in 10 volumes of buffer solution (50 mM of Tris-HCl, 120 mM of NaCl, 5 mM of KCl, 1 mM of MgCl2, 2mM of CaCl2; pH 7.4; 4° C.) using homogenizer (HG30, Hitachi Kohki Ltd.) for 30 seconds, and the homogenate were centrifuged under 1,000×G for 10 minutes at 4° C. The resulting supernatant was separated and the pellet was homogenized again with half volume of aforementioned prior buffer solution and centrifuged under the same conditions. Combined supernatant was further centrifuged under 40,000×G for 20 minutes at 4° C. The pellet was suspended in buffer solution and used for binding assays at receptors.
(2) Experiments of α4β2 Subtype of Nicotinic Acetylcholine Receptors Binding
Suspensions of membrane pellets containing 400-600 μg of protein were added to test tubes containing test compounds and [^3H]-cytisine (2 nM) in a final volume of 200 μl and incubated for 75 minutes in ice-cooled bath. The samples were isolated by vacuum filtration onto Whatman GF/B filters, which were prerinsed with 0.5% polyethylenimine just prior to sample filtration, using Brandel multi manifold cell harvester. The filters were rapidly washed with buffer solution (3×1 ml). The filters were counted in 3 ml of clearsol I (Nacalai Tesque Inc.).
The analyses of the experimental results were conducted by using the Accufit Competition Program (Beckman Ltd.).

T1 sequence (P09483 31-630): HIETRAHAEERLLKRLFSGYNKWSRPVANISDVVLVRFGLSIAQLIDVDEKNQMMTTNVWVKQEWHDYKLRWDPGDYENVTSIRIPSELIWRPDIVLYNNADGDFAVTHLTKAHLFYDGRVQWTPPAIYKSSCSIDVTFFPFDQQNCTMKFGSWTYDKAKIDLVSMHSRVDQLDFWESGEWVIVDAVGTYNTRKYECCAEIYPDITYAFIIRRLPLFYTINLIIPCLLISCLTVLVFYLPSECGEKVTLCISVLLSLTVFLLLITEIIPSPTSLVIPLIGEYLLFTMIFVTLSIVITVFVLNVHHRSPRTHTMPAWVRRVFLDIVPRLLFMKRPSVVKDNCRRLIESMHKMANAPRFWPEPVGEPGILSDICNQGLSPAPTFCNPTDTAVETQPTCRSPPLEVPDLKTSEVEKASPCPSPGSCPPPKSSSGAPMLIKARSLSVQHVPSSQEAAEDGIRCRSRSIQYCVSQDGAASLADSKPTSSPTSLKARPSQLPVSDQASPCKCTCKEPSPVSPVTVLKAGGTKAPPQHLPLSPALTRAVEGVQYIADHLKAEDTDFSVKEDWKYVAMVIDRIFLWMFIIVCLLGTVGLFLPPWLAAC
T1 sequence (P12390 25-500): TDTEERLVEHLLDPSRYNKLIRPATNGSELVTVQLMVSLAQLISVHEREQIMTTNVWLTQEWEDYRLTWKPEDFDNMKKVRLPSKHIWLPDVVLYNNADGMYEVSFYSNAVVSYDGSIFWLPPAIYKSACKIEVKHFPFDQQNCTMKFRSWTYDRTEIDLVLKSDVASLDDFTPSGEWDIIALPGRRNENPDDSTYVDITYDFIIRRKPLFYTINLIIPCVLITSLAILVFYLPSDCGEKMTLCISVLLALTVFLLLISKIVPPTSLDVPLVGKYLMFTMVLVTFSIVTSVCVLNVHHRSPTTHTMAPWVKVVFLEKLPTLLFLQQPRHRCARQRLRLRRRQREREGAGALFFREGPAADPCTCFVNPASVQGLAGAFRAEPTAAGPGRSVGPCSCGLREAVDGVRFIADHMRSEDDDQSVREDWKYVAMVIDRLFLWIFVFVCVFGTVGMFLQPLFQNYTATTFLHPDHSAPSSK

Question: How did the Ki turn out when `Clc1ccc(C/N=C2\SCCN2Cc2ccc(Cl)nc2)cn1` [Compound 1, 3-(6-chloro-3-pyridyl)methyl-2-[(6-chloro-3-pyridyl)methyl]iminothiazolidine] was run?
Answer: 16 nM

Question: `Clc1ccc(C/N=C2\OCCCN2Cc2ccc(Cl)nc2)cn1` [Compound 2, 3-(6-chloro-3-pyridyl)methyl-2-[(6-chloro-3-pyridyl)-methyl]imino-3,4,5,6-tetrahydro-2H-1,3-oxazine] was tested. Which Ki did it give?
Answer: 22 nM

Question: How did the Ki turn out when `Clc1ccc(C/N=c2\sccn2Cc2ccc(Cl)nc2)cn1` [Compound 8, 3-(6-chloro-3-pyridyl)methyl-2-[(6-chloro-3-pyridyl)methyl]imino-2,3-dihydrothiazole] was run?
Answer: 42 nM

Question: With `Cn1ccn(Cc2ccc(Cl)nc2)c1=N` [Compound 13, 1-(6-chloro-3-pyridyl)methyl-2-imino-3-methyl-2,3-dihydroimidazole] as the compound, how does the Ki read?
Answer: 15 nM
